Data: publication PMC8202924, “Emodepside targets SLO-1 channels of Onchocerca ochengi and induces broad anthelmintic effects in a bovine model of onchocerciasis” (PLoS Pathogens, 2021)
Where “and” joins values, the source holds several entries; their conditions need not be identical. Equal values may be shown once. Read-outs that look alike come from different tables or passages of the source.

Key:
[1] = Dose identification (tolerability, blood glucose) after single IV infusion in Holstein cattle; assay type: in vivo, Holstein cattle (Bos taurus)
Source text: To ensure that doses of emodepside would be well tolerated in cattle in Cameroon, and that any adverse effects would be manageable in the field, dose identification was first performed in two female Holstein cattle (Bos taurus) 13–15 months old in Germany. Animals were from Rinder Union West, 48147 Münster, Germany, and were kept in a pen in an outdoor climate housing system of approximately 8 × 10 m in size in Hanscheider Hof, 51399 Burscheid, Germany. Pens were equipped with a self-locking feeding fence, deep-straw bedding and an automatic cup drinker system. Animals were offered fresh corn- and grass-silage once daily ad libitum, drinking water from the onsite well and mineral licks ad libitum. Straw bedding was refreshed at least weekly. Tolerability and pharmacokinetics (PK) of emodepside were assessed after a single intravenous (IV) injection: emodepside (4.0% m/m in solketal) was administered by constant infusion via the external jugular vein using disposable sterile IV catheters (Vasofix Braunüle 14G, 2,2 × 50 mm, Braun, Germany), sterile syringes (Perfusor-Syringe 50 mL, Braun, Germany), tubing systems (Braun Original-Perfusor-tubing, 150 cm, Luer Lock), and a perfusion system (Braun Perfusor Space). Animal 1 received emodepside 2.17 mg/kg; animal 2 received emodepside 1 mg/kg. Safety and tolerability were assessed during and after each administration. […] To determine the PK profile of emodepside and any possible influence of the drug on blood glucose concentrations, blood samples were drawn before dosing and at 4 min, 8 min, 15 min, 30 min, 1 h, 2 h, 3 h, 4 h, 6 h, 8 h, 24 h, 32 h, 48 h, 72 h, 96 h and 168 h after administration. Samples for glucose determination were taken before dosing and at 15 min, 30 min, 1 h, 2 h, 3 h, 4 h, 6 h and 8 h after dosing, centrifuged at 10°C (3,220 × g) for 10 min and stored under cool conditions (<8°C).

[2] = for Rumen contraction: over four days after treatment, from 1 contraction/min
Source text: Four non-pregnant, non-lactating cows naturally infected with O. ochengi were purchased from farmers in the Vina Division of the Adamawa Region and acclimatized at the IRAD Wakwa site for two weeks before the start of the trial. Cows were 3–6 years old and weighed 185–300 kg. They were housed in a 35 m^2 enclosure at night and fed with cotton seed cake (2 g/kg bodyweight) in the morning before grazing them on a 1 ha Brachiaria ruziziensis paddock between 9 am and 4 pm daily. Water and salt were supplied ad libitum when housed. Each cow was randomly allocated (by ear-tag number using an online research randomizer [available at https://www.randomizer.org]) to receive a single low dose of emodepside 0.15 mg/kg, a single high dose of emodepside 0.75 mg/kg, a low dose twice (emodepside 0.15 mg/kg on two consecutive days), or vehicle only (solketal). Prior to treatment, the cows were sedated with xylazine hydrochloride (Rompun). Verum or vehicle was administered IV into the jugular vein using a perfusion apparatus (Braun Perfusor Space) following an identical protocol to the Holstein pre-study described above.

[3] = Plasma PK of emodepside in the main trial, LC-MS/MS; assay type: in vivo, zebu (Ngaoundéré Gudali) cattle (B. t. indicus); conditions: for Model tmax in plasma: two-compartment model; for Tmax: bovine, iv, read-out: Time of observed Cmax in plasma (converted)
Method: Bovine samples (EDTA-plasma, skin snips and nodules) were stored at –80°C in Cameroon and shipped according to international transportation guidelines on dry ice to Bayer, Germany. Due to suspected contamination with other pathogens, samples required decontamination. Based on modified WHO guidelines for viral inactivation and reports of virus stability in fluids and solid media issued by the United States Army, decontamination of samples was performed. Samples were thawed slowly in a microbiological safety cabinet and the plasma samples were vortexed gently. Skin snips and nodules were homogenized in a Qiagen TissueLyser II (Qiagen NV, Hilden, the Netherlands) with stainless steel beads. Homogenates were weighed and mixed with 4.5 volumes of a 0.5% collagenase solution (collagenase from Clostridium histolyticum [>125 IU/mg] Merck KGaA, Darmstadt, Germany), then incubated at 37°C with orbital mixing at 140 rpm for 48 h.
Plasma samples, skin and nodule homogenates were precipitated in a 1:10 ratio with acetonitrile using a vortex mixer at 150 rpm for 10 min, then centrifuged for 5 min at 14,000 rpm. The supernatants were pipetted into gas-tight vials and incubated at 80°C for 21 min to achieve a core temperature of 80°C for 10 min, then cooled to 4°C in a water-ice bath. Finally, samples were filtered using a cellulose sterile filter (S&S Spartan 13/30) into standard HPLC vials for liquid chromatography–mass spectrometry analysis. For liquid chromatography on a C18 column, a water/methanol gradient (containing 10 mmol ammonium acetate and 0.1 mL/L formic acid) was used. Quantification of emodepside was performed by tandem mass spectrometry on an API 5500 instrument (AB Sciex, Darmstadt, Germany) using the transition of m/z = 1,120 ([M + H]^+) to its product ion m/z = 343. […]
For the PK mean model, the PK of emodepside was modelled using a closed-form, two-compartment IV model according to Eq 1. csdt=dose*c0*exp−ke*t*1+delta*exp+ke*f*t (1) with ke, f and delta being parameters describing the distribution and elimination phase, and c0 being a proportionality factor for the dose.
The multiple IV dose was modelled as an additive single-dose, two-compartment model according to Eq 2. cmdt=∑i=17t−i*tΔ>0?csdt−i*tΔ:0 (2) with i as index of doses (1 to 7), and tΔ the difference in time between consecutive doses (here 24 h).
Parameters describing distribution and elimination of emodepside were fitted to the observed data of all dose steps and animals together using the optim fit function of R and the ‘L-BFGS-B’ method […] box constraints. From the observed data, the maximal observed concentration and the corresponding timepoint were extracted. The terminal half-life was calculated from the last three datapoints. The corresponding mean values were derived from the compartmental model parameters.

[4] = 1 mg/kg IV perfusion, one animal
[5] = EMO1L, 0.15 mg/kg IV single dose, individual animals in order B0696, B0698, B0700, B0722, B0730, B0731, B0762

Structure (SMILES): CC(C)C[C@H]1C(=O)O[C@H](Cc2ccc(N3CCOCC3)cc2)C(=O)N(C)[C@@H](CC(C)C)C(=O)O[C@H](C)C(=O)N(C)[C@@H](CC(C)C)C(=O)O[C@H](Cc2ccc(N3CCOCC3)cc2)C(=O)N(C)[C@@H](CC(C)C)C(=O)O[C@H](C)C(=O)N1C [emodepside]
- Heart rate by the end of the perfusion [1, 4]: approximately 108 bpm
- Heart rate, peak during the application [1, 4]: 140 bpm
- Blood glucose, peak ([1]; 1 mg/kg IV, 3–8 h post-application, xylazine at 6–8 h may have contributed): ~ 12 mmol/L
- Blood glucose ([1]; 1 mg/kg IV, after 24 h (normal)): 4.33 mmol/L
- Adverse effects ([1]; 1 mg/kg IV, for approximately 1 h after application, then full recovery): Salivation and slight muscle tremors
- Adverse effects ([1]; 2.17 mg/kg IV perfusion, one animal, treatment discontinued): severe generalised muscle tremor, salivation and tachycardia
- Adverse effects ([2]; 0.15 mg/kg IV, over 1 h following administration): mild muscular tremors and salivation
- Rumen contraction ([2]; 0.15 mg/kg IV): 1.5 contractions/min
- Heart rate ([2]; 0.75 mg/kg IV, 6 h post treatment, increasing from 72 bpm, normal on day 4): 80 bpm
- Blood glucose concentration ([2]; 0.75 mg/kg IV, 8 h after treatment): 158 to 200 mg/dL
- Blood glucose concentration ([2]; 0.75 mg/kg IV, by 24 h (within the normal range)): 61 mg/dL
- Rumen contraction ([2]; 0.75 mg/kg IV): 2 contractions/min
- Temperature and respiratory rates ([2]; 0.15 and 0.75 mg/kg IV): not affected
- Time of observed Cmax in plasma ([3]; EMO1H, 0.75 mg/kg IV single dose, animals in order B0054, B0405, B0439, B0726, B0728): 5 min
- tlast in plasma ([3]; EMO1H, 0.75 mg/kg IV single dose, individual animals in order B0054, B0405, B0439, B0721, B0726, B0727, B0728): 168 h (2×) and 504 h (4×) and 336 h
- Model tmax in plasma ([3]; EMO1H, 0.75 mg/kg IV single dose): 0.083 h
- Time of observed Cmax in plasma [3, 5]: 5 min (6×) and 30 min
- tlast in plasma [3, 5]: 168 h (3×) and 336 h (2×) and 504 h
- Model tmax in plasma ([3]; EMO1L, 0.15 mg/kg IV single dose): 0.083 h
- tlast in plasma ([3]; EMO7H, 0.75 mg/kg IV daily for 7 days, individual animals in order B0404, B0434, B0694, B0695, B0734, B0750, B0765): 504 h
- Model tmax in plasma ([3]; EMO7H, 0.75 mg/kg IV daily for 7 days): 144 h
- tlast in plasma ([3]; EMO7L, 0.15 mg/kg IV daily for 7 days, individual animals in order B0228, B0407, B0549, B0725, B0733, B0735, B0761): 336 h and 504 h (6×)
- Model tmax in plasma ([3]; EMO7L, 0.15 mg/kg IV daily for 7 days): 144 h
- Tmax ([3]; Ngaoundéré Gudali zebu, plasma, 0.15 mg/kg, EMO7L, 0.15 mg/kg IV daily for 7 days, animals in order B0228, B0407, B0735, B0761): 1440 min
- Tmax ([3]; Ngaoundéré Gudali zebu, plasma, 0.15 mg/kg, EMO7L, 0.15 mg/kg IV daily for 7 days, animals in order B0549, B0725, B0733): 5 min
- Tmax ([3]; Ngaoundéré Gudali, plasma, 0.75 mg/kg, EMO7H, 0.75 mg/kg IV daily for 7 days, animals in order B0434, B0695, B0734): 5 min
- Terminal half-life ([3]; plasma, derived from observed data and aggregated through the PK model, all dose groups): approximately 106 h
